Assay results taken from publication PMC6837341, “Evolutionarily conserved susceptibility of the mitochondrial respiratory chain to SDHI pesticides and its consequence on the impact of SDHIs on human cultured cells” (PLoS ONE, 2019).

Columns and labels:
[1] = molecular target: succinate cytochrome c reductase (SDH+CIII) (Homo sapiens, UniProt O14521+P21912+Q99643); experiment: Malonate-sensitive SCCR activity in fibroblasts grown in the presence of bixafen; assay type: cell-based; settings: cells grown in glucose medium with 20 μM bixafen, measured after repeated washing
Chain of succinate cytochrome c reductase (SDH+CIII) (P21912 29-280): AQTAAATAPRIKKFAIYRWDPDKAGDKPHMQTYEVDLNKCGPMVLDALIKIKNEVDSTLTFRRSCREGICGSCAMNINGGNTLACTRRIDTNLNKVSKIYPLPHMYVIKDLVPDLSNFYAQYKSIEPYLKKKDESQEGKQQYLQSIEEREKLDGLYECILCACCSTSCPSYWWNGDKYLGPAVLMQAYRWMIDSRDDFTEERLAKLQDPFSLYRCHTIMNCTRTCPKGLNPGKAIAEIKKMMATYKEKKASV
Chain of succinate cytochrome c reductase (SDH+CIII) (Q99643 30-169): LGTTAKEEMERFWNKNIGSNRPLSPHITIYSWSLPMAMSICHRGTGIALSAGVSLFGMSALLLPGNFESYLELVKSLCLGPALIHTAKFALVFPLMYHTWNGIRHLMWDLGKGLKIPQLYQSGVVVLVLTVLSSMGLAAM
Chain of succinate cytochrome c reductase (SDH+CIII) (O14521 57-159): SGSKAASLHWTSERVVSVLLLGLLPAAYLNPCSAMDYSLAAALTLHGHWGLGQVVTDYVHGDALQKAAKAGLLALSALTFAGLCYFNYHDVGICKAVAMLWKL
Chain of succinate cytochrome c reductase (SDH+CIII) (P31040 43-664 partner): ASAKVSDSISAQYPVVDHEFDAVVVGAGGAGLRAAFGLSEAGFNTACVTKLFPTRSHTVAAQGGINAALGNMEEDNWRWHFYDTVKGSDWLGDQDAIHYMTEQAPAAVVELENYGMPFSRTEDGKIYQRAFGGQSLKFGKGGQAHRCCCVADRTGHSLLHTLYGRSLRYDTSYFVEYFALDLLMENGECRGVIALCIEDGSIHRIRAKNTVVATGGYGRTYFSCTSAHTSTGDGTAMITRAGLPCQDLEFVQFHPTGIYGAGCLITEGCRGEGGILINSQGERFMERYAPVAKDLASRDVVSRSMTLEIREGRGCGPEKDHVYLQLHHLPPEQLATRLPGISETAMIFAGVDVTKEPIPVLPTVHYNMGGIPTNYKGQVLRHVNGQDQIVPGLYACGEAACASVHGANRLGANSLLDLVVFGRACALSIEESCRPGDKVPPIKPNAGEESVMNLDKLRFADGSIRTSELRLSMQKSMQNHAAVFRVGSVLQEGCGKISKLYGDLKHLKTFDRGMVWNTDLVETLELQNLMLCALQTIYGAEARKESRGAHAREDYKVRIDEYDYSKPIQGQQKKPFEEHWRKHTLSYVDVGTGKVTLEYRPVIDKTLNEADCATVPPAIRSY
Procedure: To test SDHIs on growing skin fibroblasts, cells trypsinized from a confluent 75-cm^2 flask culture were seeded in 4×75-cm^2 flasks (20–25% confluency) containing GlucoMax medium (S1 Table). After allowing the culture to stand for one night, the medium was changed to the desired conditions, i.e., GlucoMax medium or MitoMax medium (S1 Table), supplemented with the chosen amount of SDHI (control conditions compensated for DMSO used to solubilize SDHI; 14 mM max). The number of cells was estimated from random images using the ImageJ processing program for 15–20 days without changing the medium (one unique exposure to SDHI).
RC enzyme activities were spectrophotometrically measured using a pseudo-double-wavelength spectrophotometer (Cary 60, Agilent). […] With this aim, we measured the malonate-sensitive succinate cytochrome c reductase (SDH+CIII), glycerol-3-phosphate cytochrome c reductase (G3PDH+CIII) and antimycin-sensitive quinol cytochrome c reductase (CIII) as previously described.
Given the substantial effect of SDHIs on the activity of human SDH, we next assessed the effects of these compounds on the viability of human cells in culture (primary skin fibroblasts) (Figs 3, 4 and 5). […]

[2] = molecular target: T1, glycerol-3-phosphate dehydrogenase (G3PDH) (Homo sapiens, UniProt P43304); experiment: Glycerol 3-phosphate quinone-DCPIP reductase (GQDR) activity; assay type: biochemical; settings: up to 500 μM; not shown
T1 sequence (P43304 43-727): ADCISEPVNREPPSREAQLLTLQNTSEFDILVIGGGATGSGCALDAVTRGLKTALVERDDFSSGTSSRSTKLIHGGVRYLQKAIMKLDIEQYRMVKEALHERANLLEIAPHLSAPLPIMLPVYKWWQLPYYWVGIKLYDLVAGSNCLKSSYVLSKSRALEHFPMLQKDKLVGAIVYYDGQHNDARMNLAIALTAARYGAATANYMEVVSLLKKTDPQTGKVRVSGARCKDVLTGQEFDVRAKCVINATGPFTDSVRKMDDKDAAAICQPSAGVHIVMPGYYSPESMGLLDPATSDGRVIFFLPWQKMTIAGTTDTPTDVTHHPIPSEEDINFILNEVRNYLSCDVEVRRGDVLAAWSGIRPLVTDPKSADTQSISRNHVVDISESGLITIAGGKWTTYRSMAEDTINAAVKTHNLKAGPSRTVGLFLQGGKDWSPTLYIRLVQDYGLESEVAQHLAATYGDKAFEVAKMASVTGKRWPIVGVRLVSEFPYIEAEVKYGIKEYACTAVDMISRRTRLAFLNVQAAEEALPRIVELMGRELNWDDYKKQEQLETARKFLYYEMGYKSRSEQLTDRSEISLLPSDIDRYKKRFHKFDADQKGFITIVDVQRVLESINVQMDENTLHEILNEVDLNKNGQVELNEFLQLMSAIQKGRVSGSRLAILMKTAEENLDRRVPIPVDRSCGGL
Procedure: RC enzyme activities were spectrophotometrically measured using a pseudo-double-wavelength spectrophotometer (Cary 60, Agilent). Malonate-sensitive succinate quinone dichlorophenolindophenol (DCPIP) reductase (SQDR), as an indicator of the activity of the isolated SDH enzyme (isolated CII), and glycerol-3-phosphate quinone DCPIP reductase (GQDR), as a measure of the activity of the isolated glycerol-3-phosphate dehydrogenase (G3PDH), were assayed as previously described. To study the effect of SDHIs on the RC, we had to take into consideration the fact that these inhibitors act through binding to quinone-binding sites in the RC. Accordingly, we observed that the extent of the inhibitory effects of these substances varies with the addition of exogenous quinones (Fig 1). […] With this aim, we measured the malonate-sensitive succinate cytochrome c reductase (SDH+CIII), glycerol-3-phosphate cytochrome c reductase (G3PDH+CIII) and antimycin-sensitive quinol cytochrome c reductase (CIII) as previously described.

Cn1cc(C(=O)Nc2ccc(F)cc2-c2ccc(Cl)c(Cl)c2)c(C(F)F)n1 [Bixafen, bixafen]
Inhibition of malonate-sensitive SCCR activity in cells [1]: 80% | Inhibitory effect on glycerol 3-phosphate quinone-DCPIP reductase [2]: no inhibitory effect
